Like-named read-outs stand apart in the source and are kept apart here.
Experiments:
A2780 = assay: Cell proliferation assay; format: cell-based; details: Homo sapiens; for IC50: Ovarian A2780
Procedure: (§1) Measurement of the inhibitive effect of compounds on cancer cell proliferation was performed. The assays were performed under the following conditions: Cells are harvested at a concentration of 4×10^4 cells/ml in media. Volumes of 100 μL/well of these cell suspensions were added to a 96 well plate using a multichannel pipette. Plates were gently agitated to ensure an even dispersion of cells over a given plate. Cells were then incubated at 37° C., 5% CO2 overnight. Following this, 100 μL of compound at varying concentrations was added to wells in triplicate. Control wells are those with 100 μL media containing 0.33% DMSO added to cell suspension (this is the equivalent volume of DMSO found in the highest concentration of drug). Plates were then gently agitated, as above, and incubated at 37° C., 5% CO2 for 72 hrs (control wells have reached 80-90% confluency). Assessment of cell proliferation in the presence of Compounds C and F was determined by the acid phosphatase assay.
(§2) Following the incubation period of 72 hrs, media was removed from the plates. Each well on the plate was washed twice with 100 μL PBS. This was then removed and 100 μL of freshly prepared phosphatase substrate (10 mM p-nitrophenol phosphate in 0.1M sodium acetate, 0.1% triton X-100, pH 5.5) was added to each well. The plates were then incubated in the dark at 37° C. for 2 hours. Color development was monitored during this time. The enzymatic reaction was stopped by the addition of 50 μL of 1N NaOH. The plate was read in a dual beam plate reader at 405 nm with a reference wavelength of 620 nm. The absorbance reading of the latter is subtracted from the former, and the effect of the drug on cell proliferation was then measured as a percentage against the control cells (DMSO), which is taken as 0% inhibition.

A549 = assay: Cell proliferation assay; format: cell-based; details: Homo sapiens
Procedure: as §1, §2

HCT 116 = assay: Cell proliferation assay; format: cell-based; details: Homo sapiens
Procedure: as §1, §2

Jeko-1 = assay: Cell proliferation assay; format: cell-based; details: Homo sapiens; for IC50: Mantle Cell Jeko-1, overexpression of Cyclin D
Procedure: as §1, §2

OAW42 = assay: Cell proliferation assay; format: cell-based; details: Homo sapiens, OAW-42; for IC50: Ovarian OAW42
Procedure: as §1, §2

TOV-112D = assay: Cell proliferation assay; format: cell-based; details: Homo sapiens
Procedure: as §1, §2

TOV-21G = assay: Cell proliferation assay; format: cell-based; details: Homo sapiens
Procedure: as §1, §2

cyclin D1 = assay: Western blot of Cyclin D1, Example 6B; format: cell-based; details: 24 h, compared to control (DMSO)
Procedure: Cells were plated at a density of 3×10^5 cells/well for 24 hrs. Representative compounds or DMSO alone was then added to the wells for 24 h at 250 nM (note: Compound F was administered at a concentration of 2 μM). Cells were trypsinised, pelleted, washed ×3 in PBS, and lysed using a 2% SDS lysis solution (Sigma—05030).
Western blot analysis was then carried out to look at Cyclin D1 (Abeam—ab134175), PRK8 (Sigma—P6248), Rb (Abeam—[…]) and GAPDH (Sigma—G9545) levels.

[1] = HCT-116 xenograft model, body weight and adverse events; format: in vivo; details: for weight loss or adverse events: Groups 2-6 of Table 8, IP daily for 20 days; for body weight: throughout the duration of the study, Compound 42 1 and 5 mg/kg, Compound F 10 or 25 mg/kg
Procedure: Treatments were initiated when turner volume reached 100-150 mm^3. Treatments started on Day 5. Test compounds were administered intraperitoneally (II′) in 10 mg/mL solution comprising 10% N,N-dimethyl acetamide, 15% macrogol 15 hydroxy stearate, polyethylene glycol-15-hydroxystearate, and 75% aqueous hydroxypropyl-beta-cyclodextrin.
Observation and data collection: After tumor cells inoculation, the animals were checked daily for morbidity and mortality. At the time of routine monitoring, the animals were checked for any adverse effects of tumor growth and treatments on normal behavior such as mobility, visual estimation of food and water consumption, body weight gain/loss, eye/hair matting and any other abnormal effects, Death and observed clinical signs were recorded, per […] IACUC. Tumor volumes were measured every 3-4 days in two dimensions using an electronic caliper, sad the volume data are expressed in, mm3 using the formula: V=0.5 a×b^2 where a and b are fee long and short diameters of the tumor, respectively. Dosing and tumor volume measurement procedures were conducted in a Laminar Flow Cabinet according to Altogen Labs IACUC regulations.
Body weight loss daring fee study: Sacrifice fee mouse when one measurement of body weight loss (BWL)>20% (only for control animals). Animal research associated wife this study was conducted under Altogen Labs IACUC regulatory space. Altogen Labs IACUC guidelines were followed in case of BWL and any other conditions.

[2] = CRC HCT-116, loss of p16 (mutant p53), read-out: Proliferation IC50
[3] = Ovarian TOV112D, loss of p16 (mutant p53), read-out: Proliferation IC50
[4] = Ovarian TOV21G, read-out: Proliferation IC50

Compound	IC50 (A2780) [nM]	IC50 (HCT 116; [2]) [nM]	IC50 (Jeko-1) [nM]	IC50 (OAW42) [nM]	IC50 (TOV-112D; [3]) [nM]	IC50 (TOV-21G; [4]) [nM]	weight loss or adverse events [1]	body weight [1]	further results
Cc1ccccc1C(=O)Nc1nc(NC(=O)c2ccccc2C)n(-c2ccc(OC(F)(F)F)cc2)n1 [Compound 42, N,N′-(1-(4-(trifluoromethoxy)phenyl)-1H-1,2,4-triazole-3,5-diyl)bis(2-methylbenzamide)]	84	87	154	166	103	109	No weight loss or any adverse events	maintained body weight	EC50 (A2780; Table 7a, Ovarian (A2780)): 58 nM; EC50 (A549; Table 7a, Lung (A549)): 72 nM; EC50 (HCT 116; Table 7a, Colon (HCT-116), read-out: EC50): 87 nM; EC50 (Jeko-1; Table 7a, Mantle Cell (Jeko-1)): 154 nM; EC50 (OAW42; Table 7a, Ovarian (OAW42)): 166 nM; EC50 (TOV-112D; Table 7a, Ovarian (TOV112D), read-out: EC50): 98 nM; EC50 (TOV-21G; Table 7a, Ovarian (TOV21G)): 74 nM; Cyclin D1 expression (cyclin D1; HCT-116, 250 nM): reduction of Cyclin D1 expression; Cyclin D1 expression (cyclin D1; TOV-112, 250 nM): reduction of Cyclin D1 expression
Cc1ccccc1C(=O)Nc1nc(NC(=O)c2ccccc2C)n(-c2ccccc2)n1 [Compound F, 2-methyl-N-[5-[(2-methylbenzoyl)amino]-1-phenyl-1,2,4-triazol-3-yl]benzamide]	1300	1300	> 2500	> 2500	850	1500	No weight loss or any adverse events	maintained body weight	IC50 (A549; A549, 72 hrs, read-out: Cell Viability: IC50): 7540 nM; IC50 (HCT 116; HCT 116, 72 hrs, read-out: Cell Viability: IC50): 2000 nM; IC50 (TOV-112D; TOV112D, TOV-112D, 72 hrs, read-out: Cell Viability: IC50): 990 nM; IC50 (TOV-21G; TOV21G, TOV-21G, 72 hrs, read-out: Cell Viability: IC50): 1160 nM; Cyclin D1 expression (cyclin D1; HCT-116, 2 μM): reduction of Cyclin D1 expression; Cyclin D1 expression (cyclin D1; TOV-112, 2 μM): reduction of Cyclin D1 expression

— patent US20210244712A1, “METHODS FOR TREATING PATIENTS WITH CANCER HAVING DEFECTS IN CYCLIN D REGULATION” (NysnoBio Ireland DAC, priority 2018, published 2021)
